Experimental data as given in US11724997B2, “Compounds and compositions for treating conditions associated with APJ receptor activity” (Annapurna Bio, Inc., priority 2018, dated 2023).

target: T1, APJ Receptor (Homo sapiens, UniProt P35414); experiment: APJ cAMP assay: inhibition of forskolin-stimulated cAMP, enzyme fragment complementation, in CHO-K1 cells stably expressing the APJ Receptor; format: cell-based; settings: CHO-K1 cell line (DiscoverX) stably expressing APJ Receptor; EC80 forskolin; 30 minutes at 37° C.; read-out: APJ cAMP EC50 Potency range
T1 sequence (P35414 1-380): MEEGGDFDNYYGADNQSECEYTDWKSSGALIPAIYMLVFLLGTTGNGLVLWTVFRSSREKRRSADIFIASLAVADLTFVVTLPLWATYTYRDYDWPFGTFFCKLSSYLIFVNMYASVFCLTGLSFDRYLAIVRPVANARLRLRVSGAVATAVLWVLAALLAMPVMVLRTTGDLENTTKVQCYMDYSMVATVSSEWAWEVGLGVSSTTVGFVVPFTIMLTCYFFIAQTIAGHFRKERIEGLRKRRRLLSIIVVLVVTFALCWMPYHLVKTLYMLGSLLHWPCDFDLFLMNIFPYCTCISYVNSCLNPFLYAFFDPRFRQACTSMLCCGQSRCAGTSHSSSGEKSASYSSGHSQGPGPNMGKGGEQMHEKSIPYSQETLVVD
Source text: Activation of APJ receptor is known to inhibit forskolin-stimulated cyclic AMP (cAMP) production in cells in a pertussis toxin-sensitive manner which indicates primary coupling to the GαI subunit of the G protein heterotrimeric complex. In addition to signaling through G protein and inhibition of cAMP, APJ receptor activation also results in β-arrestin recruitment, receptor internalization and activation of extracellular-regulated kinases (ERKs).
In order to optimize functional activity directed toward Gi coupling we utilized a CHO-K1 cell line developed by DiscoverX stably expressing the APJ Receptor. Cells expressing APJR receptor were plated in a 384-well microtiter plates and incubated overnight at 37° C. with 5% CO2 to allow the cells to attach and grow. Media was then aspirated from the cells and replaced with 15 uL 2:1 Hanks Balanced Salt Solution (HBSS)/10 mM Hepes. cAMP XS+ Ab reagent. Five microliters (5 uL) of previously generated compound sample stocks at 4× final concentration in assay buffer containing 4×EC80 forskolin were then added to the cells and allowed to incubate at 37° C. for 30 minutes.
After incubation the assay signal was generated using a technology termed enzyme fragment complementation (EFC). In EFC the enzyme B-galactosidase is split into two complementary portions (EA and ED). The fragment ED is fused to cAMP and in the assay format competes with endogenous cAMP for binding to a cAMP specific antibody. Activated B-Gal is formed when exogenous EA fragment binds to free ED-cAMP (not bound to cAMP specific antibody). Activated enzyme levels are detected through conversion of B-gal chemiluminescent substrate which generates a detectable luminescence signal and read on standard microtiter plate.
The methodology for detection of cAMP using EFC requires incubation with 20 uL of cAMP XS+ ED/CL lysis cocktail for one hour followed by incubation with 20 uL cAMP XS+ EA reagent for three hours at room temperature. Microplates were read following signal generation with a PerkinElmer Envision instrument utilizing chemiluminescent signal detection.
Compound activity was analyzed using CBIS data analysis suite (ChemInnovation, CA).
Percentage activity was calculated using the following formula: % Activity=[…]×(1−(mean RLU of test sample−mean RLU of Max control)/(mean RLU of vehicle control−mean RLU of Max control))
The biological activity of the exemplified compounds of this invention determined by the assay described above is shown in Table 1. The APJ cAMP EC50 potency ranges are as follows: A: EC50<1 nM; B: 1≤EC50<100 nM; and C: 100≤EC50<10,000 nM.

Compared with `COc1cccc(OC)c1-n1c(C(=O)NS(=O)(=O)Cc2ncccn2)nnc1-c1cccc(OC(F)F)n1` [Example 22, 5-(6-(Difluoromethoxy)pyridin-2-yl)-4-(2,6-dimethoxyphenyl)-N-((pyrimidin-2-ylmethyl)sulfonyl)-4H-1,2,4-triazole-3-carboxamide], `COc1cccc(-c2nnc(C(=O)NS(=O)(=O)Cc3ncccn3)n2-c2c(OC)cccc2OC)n1` [Example 26, 4-(2,6-dimethoxyphenyl)-5-(6-methoxypyridin-2-yl)-N-((pyrimidin-2-ylmethyl)sulfonyl)-4H-1,2,4-triazole-3-carboxamide] is lower in EC50: 1 to 100 nM for the first, under 1 nM for the second. The second is the more potent here.

First: COc1cccc(OC)c1-n1c(C(=O)NS(=O)(=O)Cc2ncccn2)nnc1-c1ccc(F)c(OC)n1 [Example 23, 4-(2,6-Dimethoxyphenyl)-5-(5-fluoro-6-methoxypyridin-2-yl)-N-((pyrimidin-2-ylmethyl)sulfonyl)-4H-1,2,4-triazole-3-carboxamide]
Second: CCOc1cccc(-c2nnc(C(=O)NS(=O)(=O)Cc3ncccn3)n2-c2c(OC)cccc2OC)n1 [Example 41, 4-(2,6-Dimethoxyphenyl)-5-(6-ethoxypyridin-2-yl)-N-((pyrimidin-2-ylmethyl)sulfonyl)-4H-1,2,4-triazole-3-carboxamide]
The EC50 of the first is higher: 100 to 10000 nM for the first, under 1 nM for the second. The second is the more potent here.

Compared with `COc1cccc(OC)c1-n1c(C(=O)NS(=O)(=O)Cc2ncc(C)cn2)nnc1-c1ccc(C)cn1` [Example 24, 4-(2,6-Dimethoxyphenyl)-5-(5-methylpyridin-2-yl)-N-(((5-methylpyrimidin-2-yl)methyl)sulfonyl)-4H-1,2,4-triazole-3-carboxamide], `COc1cccc(-c2nnc(C(=O)NS(=O)(=O)Cc3ncc(C)cn3)n2-c2c(OC)cccc2OC)n1` [Example 27, 4-(2,6-Dimethoxyphenyl)-5-(6-methoxypyridin-2-yl)-N-(((5-methylpyrimidin-2-yl)methyl)sulfonyl)-4H-1,2,4-triazole-3-carboxamide] is lower in EC50: 100 to 10000 nM for the first, under 1 nM for the second. The second is the more potent here.

First: COc1cccc(OC)c1-n1c(C(=O)NS(=O)(=O)Cc2ncccn2)nnc1-c1cc(C)ccn1 [Example 25, 4-(2,6-Dimethoxyphenyl)-5-(4-methylpyridin-2-yl)-N-((pyrimidin-2-ylmethyl)sulfonyl)-4H-1,2,4-triazole-3-carboxamide]
Second: CCOc1cccc(-c2nnc(C(=O)NS(=O)(=O)Cc3ncc(C)cn3)n2-c2c(OC)cccc2OC)n1 [Example 38, 4-(2,6-Dimethoxyphenyl)-5-(6-ethoxypyridin-2-yl)-N-(((5-methylpyrimidin-2-yl)methyl)sulfonyl)-4H-1,2,4-triazole-3-carboxamide]
The EC50 of the first is higher: 100 to 10000 nM for the first, under 1 nM for the second.

First: COc1cccc(-c2nnc(C(=O)NS(=O)(=O)Cc3ccccn3)n2-c2c(OC)cccc2OC)n1 [Example 28, 4-(2,6-Dimethoxyphenyl)-5-(6-methoxypyridin-2-yl)-N-((pyridin-2-ylmethyl)sulfonyl)-4H-1,2,4-triazole-3-carboxamide]
Second: COc1cccc(-c2nnc(C(=O)NS(=O)(=O)Cc3cnccn3)n2-c2c(OC)cccc2OC)n1 [Example 37, 4-(2,6-Dimethoxyphenyl)-5-(6-methoxypyridin-2-yl)-N-((pyrazin-2-ylmethyl)sulfonyl)-4H-1,2,4-triazole-3-carboxamide]
The EC50 of the first is lower: under 1 nM for the first, 1 to 100 nM for the second. The first is the more potent here.

`COc1cccc(-c2nnc(C(=O)NS(=O)(=O)Cc3ncc(Cl)cn3)n2-c2c(OC)cccc2OC)n1` [Example 29, N-(((5-chloropyrimidin-2-yl)methyl)sulfonyl)-4-(2,6-dimethoxyphenyl)-5-(6-methoxypyridin-2-yl)-4H-1,2,4-triazole-3-carboxamide] and `CCOc1cccc(-c2nnc(C(=O)NS(=O)(=O)Cc3ncc(Cl)cn3)n2-c2c(OC)cccc2OC)n1` [Example 43, N-(((5-chloropyrimidin-2-yl)methyl)sulfonyl)-4-(2,6-dimethoxyphenyl)-5-(6-ethoxypyridin-2-yl)-4H-1,2,4-triazole-3-carboxamide] cannot be ordered by EC50: under 1 nM for the first, under 1 nM for the second.

Compared with `COc1cccc(-c2nnc(C(=O)NS(=O)(=O)Cc3cccc(F)c3)n2-c2c(OC)cccc2OC)n1` [Example 30, 4-(2,6-Dimethoxyphenyl)-N-((3-fluorobenzyl)sulfonyl)-5-(6-methoxypyridin-2-yl)-4H-1,2,4-triazole-3-carboxamide], `COc1cccc(-c2nnc(C(=O)NS(=O)(=O)Cc3ccc(F)cc3)n2-c2c(OC)cccc2OC)n1` [Example 31, 4-(2,6-Dimethoxyphenyl)-N-((4-fluorobenzyl)sulfonyl)-5-(6-methoxypyridin-2-yl)-4H-1,2,4-triazole-3-carboxamide] is lower in EC50: 1 to 100 nM for the first, under 1 nM for the second.

First: COc1cccc(-c2nnc(C(=O)NS(=O)(=O)CC3CCCCC3)n2-c2c(OC)cccc2OC)n1 [Example 34, N-((cyclohexylmethyl)sulfonyl)-4-(2,6-dimethoxyphenyl)-5-(6-methoxypyridin-2-yl)-4H-1,2,4-triazole-3-carboxamide]
Second: COc1cccc(-c2nnc(C(=O)NS(=O)(=O)CC3CC3)n2-c2c(OC)cccc2OC)n1 [Example 35, N-((cyclopropylmethyl)sulfonyl)-4-(2,6-dimethoxyphenyl)-5-(6-methoxypyridin-2-yl)-4H-1,2,4-triazole-3-carboxamide]
The EC50 of the first is lower: under 1 nM for the first, 1 to 100 nM for the second.

First: COc1cccc(-c2nnc(C(=O)NS(=O)(=O)Cc3cncnc3)n2-c2c(OC)cccc2OC)n1 [Example 36, 4-(2,6-Dimethoxyphenyl)-5-(6-methoxypyridin-2-yl)-N-((pyrimidin-5-ylmethyl)sulfonyl)-4H-1,2,4-triazole-3-carboxamide]
Second: CCOc1cccc(-c2nnc(C(=O)NS(=O)(=O)Cc3ncc(OC)cn3)n2-c2c(OC)cccc2OC)n1 [Example 44, 4-(2,6-Dimethoxyphenyl)-5-(6-ethoxypyridin-2-yl)-N-(((5-methoxypyrimidin-2-yl)methyl)sulfonyl)-4H-1,2,4-triazole-3-carboxamide]
The EC50 of the first is higher: 1 to 100 nM for the first, under 1 nM for the second.

`CCOc1cccc(-c2nnc(C(=O)NS(=O)(=O)Cc3ncc(F)cn3)n2-c2c(OC)cccc2OC)n1` [Example 42, 4-(2,6-Dimethoxyphenyl)-5-(6-ethoxypyridin-2-yl)-N-(((5-fluoropyrimidin-2-yl)methyl)sulfonyl)-4H-1,2,4-triazole-3-carboxamide] and `CCOc1cccc(-c2nnc(C(=O)NS(=O)(=O)Cc3ncccc3F)n2-c2c(OC)cccc2OC)n1` [Example 52, 4-(2,6-Dimethoxyphenyl)-5-(6-ethoxypyridin-2-yl)-N-(((3-fluoropyridin-2-yl)methyl)sulfonyl)-4H-1,2,4-triazole-3-carboxamide] cannot be ordered by EC50: under 1 nM for the first, under 1 nM for the second.

`CCOc1cccc(-c2nnc(C(=O)NS(=O)(=O)CCc3ccncc3)n2-c2c(OC)cccc2OC)n1` [Example 49, 4-(2,6-Dimethoxyphenyl)-5-(6-ethoxypyridin-2-yl)-N-((2-(pyridin-4-yl)ethyl)sulfonyl)-4H-1,2,4-triazole-3-carboxamide] and `CCOc1cccc(-c2nnc(C(=O)NS(=O)(=O)CCc3cccnc3)n2-c2c(OC)cccc2OC)n1` [Example 50, 4-(2,6-Dimethoxyphenyl)-5-(6-ethoxypyridin-2-yl)-N-((2-(pyridin-3-yl)ethyl)sulfonyl)-4H-1,2,4-triazole-3-carboxamide] cannot be ordered by EC50: under 1 nM for the first, under 1 nM for the second.

`CCOc1cccc(-c2nnc(C(=O)NS(=O)(=O)CCc3ccccn3)n2-c2c(OC)cccc2OC)n1` [Example 51, 4-(2,6-Dimethoxyphenyl)-5-(6-ethoxypyridin-2-yl)-N-((2-(pyridin-2-yl)ethyl)sulfonyl)-4H-1,2,4-triazole-3-carboxamide] and `CCOc1cccc(-c2nnc(C(=O)NS(=O)(=O)Cc3ccccc3F)n2-c2c(OC)cccc2OC)n1` [Example 53, 4-(2,6-Dimethoxyphenyl)-5-(6-ethoxypyridin-2-yl)-N-((2-fluorobenzyl)sulfonyl)-4H-1,2,4-triazole-3-carboxamide] cannot be ordered by EC50: under 1 nM for the first, under 1 nM for the second.
